# Experiments:
# Assay type in all cases: in vivo
# [1] = system: Echinochloa crusgalli; assay: Post-emergence test experiment, Echinochloa crusgalli; conditions: for inhibition at 200 g/ha: 200 g a.i./ha, weed resistant to ALS inhibitor and ACCe herbicides; for Activity level (growth inhibition rate), Echinochloa crusgalli: 1000 g a.i./ha, 3 weeks in greenhouse, fresh weight inhibition
# Procedure, shortened: (§1)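 Test compounds dissolve in acetone, receive tween-80 and a methyl oleate emulsible concentrate synergist (1.5 liters per hectare), then are diluted in water and sprayed onto 2-3 leaf stage plants. After 3 weeks of greenhouse culture, fresh weight inhibition is determined.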
# [2] = system: Digitaria sanguinalis; assay: Post-emergence test experiment, Digitaria sanguinalis; conditions: for inhibition at 200 g/ha: 200 g a.i./ha, weed resistant to cyhalofop-butyl; for Activity level (growth inhibition rate), Digitaria sanguinalis: 1000 g a.i./ha, 3 weeks in greenhouse, fresh weight inhibition
# Procedure, shortened: as §1
# [3] = system: Semen Euphorbiae Lathyridis; assay: Post-emergence test experiment, Semen Euphorbiae Lathyridis; conditions: 504 h, 3 weeks, read-out: Semen Euphorbiae Lathyridis, activity level (growth inhibition rate); for inhibition at 200 g/ha: 200 g a.i./ha, weed resistant to cyhalofop-butyl
# Experimental: The above described growth inhibition rate is fresh weight inhibition rate.
# Post-emergence test experiment: Monocotyledonous and dicotyledonous weed seeds and main crop seeds (i. e. wheat, corn, rice, soybean, cotton, oilseed, millet and sorghum.) were put into a plastic pot loaded with soil. Then covered with 0.5-2 cm soil, the seeds were allowed to grow in good greenhouse environment. The test plants were treated at 2-3 leaf stage 2 weeks after sowing. The test compounds of the invention were dissolved with acetone respectively, then added with tween-80, and using 1.5 liters per hectare of an emulsible concentrate of methyl oleate as a synergist, and diluted by certain amount of water to certain concentration. The solution was sprayed to the plants with a sprayer. Then the plants were cultured for 3 weeks in the greenhouse, and the experiment result of weed controlling effect was listed in tables 4-5.
# [4] = system: Monocotyledonous and dicotyledonous weed seeds and main crop seeds; assay: Post-emergence test experiment, other weeds and crops (Table 4, 1000 g a.i./ha); conditions: 3 weeks in greenhouse, fresh weight inhibition
# Procedure, shortened: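 Growth inhibition is scored on fresh weight. Spray solutions were made in acetone with tween-80, diluted in water, plus 1.5 L/ha methyl oleate emulsible concentrate. Plants from greenhouse-grown weed and crop seeds were treated post-emergence at 2-3 leaves, 2 weeks after sowing.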
# [5] = Echinochloa crus-galli, 504 h, 3 weeks, read-out: Echinochloa crusgalli, activity level (growth inhibition rate)
# [6] = Digitaria sanguinalis, 504 h, 3 weeks, read-out: Digitaria sanguinalis, activity level (growth inhibition rate)
SMILES,"inhibition at 200 g/ha [1, 5] [%]","inhibition at 200 g/ha [2, 6] [%]",inhibition at 200 g/ha [3] [%],"inhibition at 100 g/ha ([1]; Echinochloa crus-galli, 504 h, 100 g a.i./ha, 3 weeks, resistant weed, read-out: Echinochloa crusgalli, activity level (growth inhibition rate)) [%]","inhibition at 100 g/ha ([2]; Digitaria sanguinalis, 504 h, 100 g a.i./ha, 3 weeks, resistant weed, read-out: Digitaria sanguinalis, activity level (growth inhibition rate)) [%]","inhibition at 100 g/ha ([3]; 100 g a.i./ha, resistant weed) [%]","Activity level (growth inhibition rate), Echinochloa crusgalli [1]","Activity level (growth inhibition rate), Digitaria sanguinalis [2]","Activity level (growth inhibition rate), Abutilon theophrasti Medic. [4]","Activity level (growth inhibition rate), Galium aparine [4]","Activity level (growth inhibition rate), Monochoria Vaginalis [4]"
CCOC(=O)[C@H](C)Oc1nc(F)c(Cl)c(N)c1Cl [reference compound],5 to 20,5 to 20,5 to 20,–,–,–,–,–,–,–,–
"COc1cc(OC)nc(Oc2cccc(Oc3nc(OC)cc(OC)n3)c2C(=O)O)n1 [bispyribac-sodium, reference compound]",–,–,–,5 to 20,5 to 20,< 5,–,–,–,–,–
COC(=O)[C@H](C)Oc1ncc(Cl)c(N)c1Cl [reference compound],< 5,< 5,< 5,–,–,–,–,–,–,–,–
C[C@H](Oc1nc(Cl)c(Cl)c(N)c1Cl)C(=O)O [reference compound],5 to 20,5 to 20,5 to 20,–,–,–,–,–,–,–,–
COC(=O)C(C)Oc1ncc(Cl)c(N)c1Cl (stereo not shown) [reference compound],20 to 40,40 to 60,20 to 40,–,–,–,–,–,–,–,–
CC(Oc1nc(Cl)c(Cl)c(N)c1Cl)C(=O)O (stereo not shown) [reference compound],20 to 40,40 to 60,40 to 60,–,–,–,–,–,–,–,–
COC(=O)[C@@H](C)Oc1nc(F)c(Cl)c(NCc2ccco2)c1Cl [Compound 2-378],–,–,–,–,–,–,5 (Level 5: the growth inhibition rate is greater than 85%),5 (Level 5: the growth inhibition rate is greater than 85%),5 (Level 5: the growth inhibition rate is greater than 85%),5 (Level 5: the growth inhibition rate is greater than 85%),5 (Level 5: the growth inhibition rate is greater than 85%)
C[C@@H](Oc1nc(F)c(Cl)c(N)c1Cl)C(=O)OC(C)(C)C [Compound 2-83],–,–,–,–,–,–,5 (Level 5: the growth inhibition rate is greater than 85%),5 (Level 5: the growth inhibition rate is greater than 85%),5 (Level 5: the growth inhibition rate is greater than 85%),5 (Level 5: the growth inhibition rate is greater than 85%),5 (Level 5: the growth inhibition rate is greater than 85%)
CC(Oc1nc(F)c(Cl)c(N)c1Cl)C(=O)OCc1cccc(F)c1 (stereo not shown) [Compound 2-310],–,–,–,–,–,–,5 (Level 5: the growth inhibition rate is greater than 85%),5 (Level 5: the growth inhibition rate is greater than 85%),5 (Level 5: the growth inhibition rate is greater than 85%),5 (Level 5: the growth inhibition rate is greater than 85%),5 (Level 5: the growth inhibition rate is greater than 85%)
C[C@@H](Oc1nc(F)c(Cl)c(N)c1Cl)C(=O)SCc1cccnc1 [Compound 2-347],–,–,–,–,–,–,5 (Level 5: the growth inhibition rate is greater than 85%),5 (Level 5: the growth inhibition rate is greater than 85%),5 (Level 5: the growth inhibition rate is greater than 85%),5 (Level 5: the growth inhibition rate is greater than 85%),5 (Level 5: the growth inhibition rate is greater than 85%)
CC(C)C(C)OC(=O)[C@@H](C)Oc1nc(F)c(Cl)c(N)c1Cl (stereo partly shown) [Compound 2-95],–,–,–,–,–,–,5 (Level 5: the growth inhibition rate is greater than 85%),5 (Level 5: the growth inhibition rate is greater than 85%),5 (Level 5: the growth inhibition rate is greater than 85%),5 (Level 5: the growth inhibition rate is greater than 85%),5 (Level 5: the growth inhibition rate is greater than 85%)
CCCCCOC(=O)[C@@H](C)Oc1nc(F)c(Cl)c(N)c1Cl [Compound 2-85],–,–,–,–,–,–,5 (Level 5: the growth inhibition rate is greater than 85%),5 (Level 5: the growth inhibition rate is greater than 85%),5 (Level 5: the growth inhibition rate is greater than 85%),5 (Level 5: the growth inhibition rate is greater than 85%),5 (Level 5: the growth inhibition rate is greater than 85%)
CC(C)CCCCCOC(=O)[C@@H](C)Oc1nc(F)c(Cl)c(N)c1Cl [Compound 2-159],–,–,–,–,–,–,5 (Level 5: the growth inhibition rate is greater than 85%),5 (Level 5: the growth inhibition rate is greater than 85%),5 (Level 5: the growth inhibition rate is greater than 85%),5 (Level 5: the growth inhibition rate is greater than 85%),5 (Level 5: the growth inhibition rate is greater than 85%)
COC(=O)[C@@H](C)Oc1nc(F)c(Cl)c(NC(=O)c2ccccc2)c1Cl [Compound 2-379],–,–,–,–,–,–,5 (Level 5: the growth inhibition rate is greater than 85%),5 (Level 5: the growth inhibition rate is greater than 85%),5 (Level 5: the growth inhibition rate is greater than 85%),5 (Level 5: the growth inhibition rate is greater than 85%),5 (Level 5: the growth inhibition rate is greater than 85%)
C[C@H](Oc1nc(F)c(Cl)c(N)c1Cl)C(=O)O [reference compound],5 to 20,5 to 20,5 to 20,–,–,–,–,–,–,–,–

# Source: US12304890B2, “R-type pyridyloxycarboxylic acid, salt and ester derivative thereof, and preparation method therefor, and herbicidal composition and application thereof” (Qingdao Kingagroot Chemical Compound Co., Ltd., priority 2018, dated 2025)
